Reference: patent US6987121B2, “Compositions and methods for hepatoprotection and treatment of cholestasis” (SmithKline Beecham Corporation, priority 2002, dated 2006)

Tests used:
[1] = system: bile duct-ligated (BDL) rats; assay: Serum markers of liver function in bile duct-ligated (BDL) rats; assay type: in vivo, Sprague-Dawley rats; conditions: GW4064 100 mg/kg daily i.p. for 7 days
Protocol: (§1) Male Sprague-Dawley rats (approximately 300 grams) were obtained from Charles River Laboratories Inc (Raleigh, N.C.) and were maintained on a 12 hour light/12 hour dark light cycle. Animals were anesthetized by the administration of 2-3% isoflurane. Laparotomy was performed under sterile technique and the liver and duodenum gently displaced to reveal the common bile duct. The bile duct was separated from the surrounding tissue and two ligatures of 4-0 Ethilon were placed around it. The bile duct was clamped between the two ligatures with an aneurysm clamp and the ligatures drawn tight. An additional ligature was placed proximal to the first (near the liver). The clamp was removed and the bile duct severed between the ligatures. The muscle wall was closed with 4-0 Vicryl and the skin closed with staples. Animals were allowed to recover for 24 hours prior to administration of drug (GW4064, 100 mg/kg daily in corn oil/10% DMSO) or vehicle alone (in corn oil/10% DMSO) by a daily intra-peritoneal injection for 7 days prior to sacrifice. Animals were allowed food and water ad libitum throughout the study period. Animals were anesthetized with 2-3% isoflurane and sacrificed by cardiac puncture.
Serum levels of alanine aminotransferase (ALT), asparate aminotransferase (AST), total bilirubin (TBILI), and γ-glutamyl transferase (GGT) were determined using an Instrumentation Laboratory Ilab600 clinical chemistry analyzer. Serum bile acids (BILEA) were determined using a commercially available assay (Sigma Chemical Co., St Louis, Mo.).

[2] = system: bile duct-ligated (BDL) rats; assay: Histological examination of liver samples from BDL rats; assay type: in vivo, Sprague-Dawley rats; conditions: GW4064 100 mg/kg daily i.p. for 7 days
Protocol: as §1
A section of the liver was removed and placed into 10% neutral buffered formalin. […]

## CC(C)c1onc(-c2c(Cl)cccc2Cl)c1COc1ccc(/C=C/c2cccc(C(=O)O)c2)c(Cl)c1 [GW4064]
[1]
  Liver function as defined by the panel of enzymes examined: pronounced improvement in liver function
[1]; corn oil/10% DMSO
  Serum level of ALT, as % of that in BDL rats receiving vehicle alone: 23%
  Serum level of AST, as % of that in BDL rats receiving vehicle alone: 27%
  Serum level of GGT, as % of that in BDL rats receiving vehicle alone: 34%
  Serum level of TBILI, as % of that in BDL rats receiving vehicle alone: 49%
[2]
  Liver histology: bile duct proliferation: only bile duct proliferation
[2]; vehicle-treated showed large areas of necrosis
  Liver histology: necrosis: no necrosis
